Test [1] addresses T1, rat α3β4 nAChRs (Rattus norvegicus, UniProt P04757+P12392).
T1 construct: expressed in transfected cells; the efflux text says only stably transfected cells
The experiment in a line: [3H]epibatidine competition binding, rat α3β4 nAChRs expressed in HEK cells. The method, then:
(§1) Briefly, cultured cells at >80% confluence were removed from their flasks (80 cm^2) with a disposable cell scraper and placed in 10 ml of 50 mM Tris HCl buffer (pH 7.4, 4° C.). The cell suspension was centrifuged at 10,000×g for 5 min and the pellet was collected. For cells treated chronically with nicotinic agonists during culturing, the pellet was washed two more times by centrifugation in fresh buffer to remove residual drug. The cell pellet was then homogenized in 10 ml buffer with a polytron homogenizer (Model PT2100, 12 mm aggregate, 26,000 rpm, 20 seconds) and centrifuged at 36,000 g for 10 min at 4° C. The membrane pellet was resuspended in fresh buffer, and aliquots of the membrane preparation equivalent to 30 to 200 μg protein were used for binding assays. […] Bound and free ligands were separated by vacuum filtration through Whatman GF/C filters treated with 0.5% polyethylenimine. The filter-retained radioactivity was measured by liquid scintillation counting. Specific binding was defined as the difference between total binding and nonspecific binding. Data from saturation and competition binding assays were analyzed using Prism 4 (GraphPad Software, San Diego, Calif.).
(§2) All ligand binding assays were carried out using rat or human nAChRs heterologously expressed in human cells or in native rat brain tissues.

Test [2] concerns the target T1, rat α3β4 nAChRs. The experiment in a line: Inhibition of nicotine-stimulated 86Rb+ efflux, cells expressing rat α3β4 nAChRs. Type of test: cell-based. The method, then: (§3) In brief, cells were plated into 24-well plates coated with poly-D-lysine. […] The cells were then incubated in growth medium (0.5 ml/well) containing ^86Rb^+ (2 μCi/ml) for 4 hour at 37° C. The loading mixture was then aspirated, and the cells were washed four times with 1 ml buffer (15 mM HEPES, 140 mM NaCl, 2 mM KCl, 1 mM MgSO4, 1.8 mM CaCl2, 11 mM Glucose, pH 7.4). One ml of buffer with or without compounds to be tested was then added to each well. After incubation for 2 min, the assay buffer was collected for measurements of ^86Rb^+ released from the cells. Cells were then lysed by adding 1 ml of 100 mM NaOH to each well, and the lysate was collected for determination of the amount of ^86Rb^+ that was in the cells at the end of the efflux assay. Radioactivity of assay samples and lysates was measured by liquid scintillation counting. Total loading (cpm) was calculated as the sum of the assay sample and the lysate of each well. The amount of ^86Rb^+ efflux was expressed as a percentage of […] loaded. […] IC50 values were determined by nonlinear least-squares regression analyses (GraphPad, San Diego, Calif.).

For test [3], the target named is T2, human α4β2 nAChRs (Homo sapiens, UniProt P17787+P43681).
T2 construct: expressed in transfected cells; the efflux text says only stably transfected cells
The experiment in a line: biochemical. Type of test: binding. The method, then:
as §1, §2

In test [4] the target is T3, rat α4β2 nAChRs (Rattus norvegicus, UniProt P09483+P12390).
T3 construct: expressed in transfected cells; host or cells: HEK cells (membrane homogenates)
The test can be described thus: [3H]epibatidine competition binding, rat α4β2 nAChRs expressed in HEK cells. The method, then: as §1, with “drug.” for “drug. The cell pellet was then homogenized in 10 ml buffer with a polytron homogenizer (Model PT2100, 12 mm aggregate, 26,000 rpm, 20 seconds) and centrifuged at 36,000 g for 10 min at 4° C. The membrane pellet was resuspended in fresh buffer, and aliquots of the membrane preparation equivalent to 30 to 200 μg protein were used for binding assays.”
as §2

Test [5] deals with T2, human α4β2 nAChRs. The test can be described thus: Inhibition of nicotine-stimulated 86Rb+ efflux, cells expressing human α4β2 nAChRs. The class given is cell-based. The method, then: as §3
Test [6] has as its target T1, rat α3β4 nAChRs. Type of test: cell-based. The following applies: for Agonist Activity α3β4: stimulation of 86Rb+ efflux. The method, then: as §3
(§4) The agonist activities of ligands on nAChRs were assessed by measuring agonist-stimulated ^86Rb^+ efflux from stably transfected cells.

For test [7], the target named is T2, human α4β2 nAChRs. The class given is cell-based. The following applies: for Agonist Activity α4β2: stimulation of 86Rb+ efflux. The method, then:
as §3, §4

Test [8] deals with native nAChRs from rat forebrain (Rattus norvegicus, UniProt P09483+P12390). Conditions: read-out: Ki Forebrain (rat); 100 pM [3H]EB; published previously (Xiao and Kellar, 2004); cited from earlier work.
In test [9] the target is T3, rat α4β2 nAChRs. The following applies: 100 pM [3H]EB; published previously (Xiao and Kellar, 2004); cited from earlier work.
Test [10] concerns the target T1, rat α3β4 nAChRs. The following applies: 100 pM [3H]EB; published previously (Xiao and Kellar, 2004); cited from earlier work.
[11] abbreviates: added simultaneously with nicotine.

These results are taken from patent publication US8642612B2, “Nicotinic desensitizers and methods of selecting, testing, and using them” (Potomac Pharmaceuticals, Inc., priority 2006, dated 2014).

SMILES strings stand for the structures. Read-outs that look alike come from different tables or passages of the source.

As to `OCCCCC#Cc1cncc(OC[C@@H]2CCN2)c1` [Sazetidine-A, 6-(5-(((S)-azetidin-2-yl)methoxy)pyridin-3-yl)hex-5-yn-1-ol], the inhibitory constant (Ki) – broadly, a measure of affinity in units of concentration, obtained from inhibition or displacement – on rat α3β4 nAChRs [1] stood at 10 µM; at human α4β2 nAChRs [3], 0.00064 ± 0.00032 µM; on rat α4β2 nAChRs [4], 0.41 ± 0.16 nM; on rat α4β2 nAChRs [4] (read-out: Equilibrium binding affinity (Ki, nM) α4β2, example tables, species not given) it was 0.41 nM. Further, the “blocking of α3β4 nAChRs” value at rat α3β4 nAChRs [2] (10 min preincubation) was “ineffective”. The half-maximal inhibitory concentration (IC50) (commonly the concentration that gives 50% inhibition) against rat α3β4 nAChRs [2] (Acute Antagonist Potency (IC50(A), nM) α3β4, applied simultaneously with nicotine) was above 10000 nM; at rat α3β4 nAChRs [2] (Desensitization Potency (IC50(D,10 min), nM) α3β4, 10 min pretreatment before nicotine), above 10000 nM; on rat α3β4 nAChRs [2] (IC50 α3β4 nAChRs, 0 min Pretreatment, added simultaneously with 100 μM nicotine, mean ± SEM of 3 to 7 experiments) it was above 10000 nM; on rat α3β4 nAChRs [2] (IC50 α3β4 nAChRs, 10 min Pretreatment, 10 min preincubation, then 100 μM nicotine, mean ± SEM of 3 to 7 experiments), above 10000 nM; against human α4β2 nAChRs [5] (Acute Antagonist Potency (IC50(A), nM) α4β2, applied simultaneously with nicotine), at least 10000 nM; on human α4β2 nAChRs [5] (Desensitization Potency (IC50(D,10 min), nM) α4β2, 10 min pretreatment before nicotine) it was 26 nM. In addition, the 50% inhibitory concentration (IC50) is above 10000 nM on human α4β2 nAChRs [5] (IC50 α4β2 nAChRs, 0 min Pretreatment, added simultaneously with 100 μM nicotine, mean ± SEM of 3 to 7 experiments) and around 30 nM at human α4β2 nAChRs [5] (IC50 α4β2 nAChRs, 10 min Pretreatment, 10 min preincubation, then 100 μM nicotine, mean ± SEM of 3 to 7 experiments). In addition, on rat α3β4 nAChRs [2] (setting [11]), the “acute antagonist activity, blockade of nicotine-stimulated 86Rb+ efflux, α3β4” value is reported as “no antagonist activity”. Also, at rat α4β2 nAChRs [4] (ratio of Ki values), the “Selectivity (Ki ratio: rat α3β4/rat α4β2)” value was 24,000. Further, the “concentration that nearly completely inhibited nicotine activation of α4β2 receptors” value at human α4β2 nAChRs [5] (10 min preincubation) is around 200 nM. For the same compound, at human α4β2 nAChRs [5] (setting [11]), the “acute antagonist activity, blockade of nicotine-stimulated 86Rb+ efflux, α4β2” value is reported as “no antagonist activity”. Also, the “EC50 for activation of channel function (86Rb+ efflux)” value was “could not be calculated” on rat α3β4 nAChRs [6] (rat α3β4 receptors, mean ± SEM, FIG. 2B) and “could not be calculated” on human α4β2 nAChRs [7] (human α4β2 receptors, mean ± SEM, FIG. 2A). The entries for the “Agonist Activity α3β4” value on rat α3β4 nAChRs [6] and on rat α3β4 nAChRs [6] (listed as sazetidine-A) were “Not detected” and “no agonist activity”, respectively. Besides, the “Agonist Activity α4β2” value at human α4β2 nAChRs [7] is “Not detected”; at human α4β2 nAChRs [7] (listed as sazetidine-A), “no agonist activity”.
As to `CO[C@H]1CC=C2CCN3CCC4=C(CC(=O)OC4)[C@]23C1` [DHβE, dihydro-β-erythroidine], the inhibitory constant (Ki) in [8] was 0.13 ± 0.05 µM; at rat α4β2 nAChRs [9], 0.6 ± 0.07 µM; at rat α3β4 nAChRs [10] it was 110 µM. Further, the IC50 on rat α3β4 nAChRs [2] (added simultaneously with 100 μM nicotine, mean ± SEM of 3 to 7 experiments, read-out: IC50 α3β4 nAChRs, 0 min Pretreatment) turned out to be 160000 nM; at rat α3β4 nAChRs [2] (read-out: IC50 α3β4 nAChRs, 10 min Pretreatment, 10 min preincubation, then 100 μM nicotine, mean ± SEM of 3 to 7 experiments) it was 130000 nM.
